From PubChem BioAssay (NCI)
Where “and” joins values, the source holds several entries; their conditions need not be identical. Identical values can stand only once.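 Assay format: 96-well plates, 48-hour exposure. GI50 = concentration required for 50% inhibition of growth. TGI marks complete inhibition of growth.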

Key:
Assay in all cases: growth of human tumour cells (NCI), 48 h
[1] = system: SF-295 CNS
[2] = system: K-562 leukemia
[3] = system: UACC-62 melanoma
[4] = system: OVCAR-5 ovarian
[5] = system: A498 renal
[6] = system: HCT-116 colon
[7] = system: SF-268 CNS
[8] = system: U251 CNS
[9] = system: SW-620 colon
[10] = system: RPMI-8226 leukemia

| Compound | GI50 [1] [µM] | TGI [1] | GI50 [2] [µM] | TGI [2] | GI50 [3] [µM] | TGI [3] | GI50 [4] [µM] | TGI [4] | GI50 [5] [µM] | TGI [5] | GI50 [6] [µM] | TGI [6] | GI50 [7] [µM] | TGI [7] | GI50 [8] [µM] | TGI [8] [µM] | GI50 [9] [µM] | TGI [9] [µM] | GI50 [10] [µM] | TGI [10] |
| --- | --- | --- | --- | --- | --- | --- | --- | --- | --- | --- | --- | --- | --- | --- | --- | --- | --- | --- | --- | --- |
| Cn1ncnc1[C@H]1c2n[nH]c(=O)c3cc(F)cc(c23)N[C@@H]1c1ccc(F)cc1 | 0.44 | > 19.9 µM | > 100 | > 100 µM | > 100 | > 100 µM | > 100 | > 100 µM | 28.6 | > 100 µM | > 80.4 | > 100 µM | 3.07 | > 100 µM | 1.65 | > 100 | 25.9 | > 100 | > 100 | > 100 µM |
| O=C1CCCCCCCCCCC1CN1CCCC1 (stereo not given) | – | 86.3 µM | – | > 100 µM | – | 36.7 µM | – | > 100 µM | – | > 100 µM | – | > 100 µM | – | > 100 µM | – | > 100 | – | > 100 | – | > 100 µM |
| O=C(O)CC[C@H](NC(=O)c1ccc(-n2nc3ccc(O)cc3nc2=O)cc1)C(=O)O | – | > 100 µM | – | > 100 µM | – | > 100 µM | – | > 100 µM | – | > 100 µM | – | > 100 µM | – | > 100 µM | – | > 100 | – | > 100 | – | > 100 µM |
| COc1ccc(/C=C/c2cc(OC)c(OC)c(OC)c2)cc1 | 21.9 | 61.3 µM | 34 | > 100 µM | – | > 100 µM | – | > 100 µM | – | > 100 µM | – | > 77.2 µM | – | > 85.3 µM | – | 11.7 | – | > 100 | – | 12.3 µM |
| Cc1ccc(S(=O)(=O)c2c(COC(=O)c3cccc(C)c3)c(-c3ccccc3)nn2C)cc1 | > 100 | > 100 µM | – | – | 8.41 | > 100 µM | > 100 | > 100 µM | 29.5 | > 100 µM | > 100 | > 100 µM | > 100 | > 100 µM | > 100 | > 100 | > 100 | > 100 | > 100 | > 100 µM |
| O=C1Nc2ccc(Br)cc2C1=Nc1cccnc1 | – | > 100 µM | – | 52.7 µM | – | 35 µM | – | > 100 µM | – | > 100 µM | – | 44.5 µM | – | 71.8 µM | – | 24.8 | – | 46.4 | – | 60.9 µM |
| CSC1=C(N)C(=O)c2[nH]cc(CO)c2C1=N | 0.159 | 0.309 µM | 0.221 | 0.534 µM | 0.159 | 0.314 µM | 0.176 | 0.326 µM | 0.132 | 0.269 µM | 0.256 | 0.666 µM | 0.246 | 0.873 µM | 0.181 | 0.347 | 0.198 | 0.422 | 0.293 | 1.2 µM |
| C[C@H]1CC[C@@]2(NC1)O[C@H]1C[C@H]3[C@@H]4CC[C@H]5C[C@@H](O)CC[C@]5(C)[C@H]4CC[C@]3(C)[C@H]1[C@@H]2C | 14.8 | 42.9 µM and > 100 µM | 6.87 | 23 µM and > 100 µM | 9.42 | 17 µM and > 100 µM | 8.71 | 18.4 µM and > 100 µM | 13.8 | 35.2 µM and > 100 µM | 8.32 | 17.3 µM and > 100 µM | 14 | 50 µM and > 100 µM | 11.9 | 33.6 | 24.9 | 50 | 7.82 | 31.4 µM and > 100 µM |
